Experimental data as given in the supplement of paper PMC10307832.

Key:
Experiment in all cases: relative viability (nuclei count vs DMSO), 5 days (fraction); higher = more cells survive
LCLC-103H = system: LCLC-103H
Method in brief: (§1)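 Dosing by pin tool came one day after lung cancer cell lines were seeded in 1536-well plates, using either one drug or a fixed anchor-drug dose plus five library-drug doses (not always all listed) in √10 steps. After 5 days, nuclei were counted on 4× images. Relative viability is treated-well nuclei count divided by vehicle-well nuclei count, and values are medians of duplicate plates.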

LXF-289 = system: LXF-289
Method in brief: as §1

NCI-H1355 = system: NCI-H1355
Method in brief: as §1

NCI-H1651 = system: NCI-H1651
Method in brief: as §1

NCI-H1755 = system: NCI-H1755
Method in brief: as §1

NCI-H1915 = system: NCI-H1915
Method in brief: as §1

NCI-H2170 = system: NCI-H2170
Method in brief: as §1

NCI-H2347 = system: NCI-H2347
Method in brief: as §1

NCI-H3122 = system: NCI-H3122
Method in brief: as §1

NCI-H322M = system: NCI-H322M
Method in brief: as §1

NCI-H441 = system: NCI-H441
Method in brief: as §1

NCI-H460 = system: NCI-H460
Method in brief: as §1

NCI-H520 = system: NCI-H520
Method in brief: as §1

NCI-H522 = system: NCI-H522
Method in brief: as §1

NCI-H596 = system: NCI-H596
Method in brief: as §1

NCI-H650 = system: NCI-H650
Method in brief: as §1

NCI-H661 = system: NCI-H661
Method in brief: as §1

NCI-H727 = system: NCI-H727
Method in brief: as §1

PC-14 = system: PC-14
Method in brief: as §1

RERF-LC-KJ = system: RERF-LC-KJ
Method in brief: as §1

SK-MES-1 = system: SK-MES-1
Method in brief: as §1

SW 900 = system: SW 900
Method in brief: as §1

## COc1cc(N2CCC(C(N)=O)CC2)ccc1Nc1nc(N)c(Cl)c(Nc2ccccc2S(=O)(=O)C(C)C)n1 [HG-5-88-01] + Cc1cc(Nc2cc(N3CCN(C)CC3)nc(Sc3ccc(NC(=O)C4CC4)cc3)n2)n[nH]1 [Tozasertib] (partner 0.1 µM)
LCLC-103H; first compound 0.04 µM
  relative viability: 0.483
LCLC-103H; first compound 0.1265 µM
  relative viability: 0.511
LCLC-103H; first compound 0.4 µM
  relative viability: 0.386
LCLC-103H; first compound 1.265 µM
  relative viability: 0.611
LCLC-103H; first compound 4 µM
  relative viability: 0.345
LXF-289; first compound 0.04 µM
  relative viability: 0.156
LXF-289; first compound 0.1265 µM
  relative viability: 0.179
LXF-289; first compound 0.4 µM
  relative viability: 0.185
LXF-289; first compound 1.265 µM
  relative viability: 0.196
LXF-289; first compound 4 µM
  relative viability: 0.0786
NCI-H1355; first compound 0.04 µM
  relative viability: 0.601
NCI-H1355; first compound 0.1265 µM
  relative viability: 0.545
NCI-H1355; first compound 0.4 µM
  relative viability: 0.493
NCI-H1355; first compound 1.265 µM
  relative viability: 0.454
NCI-H1355; first compound 4 µM
  relative viability: 0.342
NCI-H1651; first compound 0.04 µM
  relative viability: 0.71
NCI-H1651; first compound 0.1265 µM
  relative viability: 0.745
NCI-H1651; first compound 0.4 µM
  relative viability: 0.7
NCI-H1651; first compound 1.265 µM
  relative viability: 0.388
NCI-H1651; first compound 4 µM
  relative viability: 0.455
NCI-H1755; first compound 0.04 µM
  relative viability: 0.602
NCI-H1755; first compound 0.1265 µM
  relative viability: 0.589
NCI-H1755; first compound 0.4 µM
  relative viability: 0.587
NCI-H1755; first compound 1.265 µM
  relative viability: 0.512
NCI-H1755; first compound 4 µM
  relative viability: 0.495
NCI-H1915; first compound 0.04 µM
  relative viability: 0.402
NCI-H1915; first compound 0.1265 µM
  relative viability: 0.436
NCI-H1915; first compound 0.4 µM
  relative viability: 0.453
NCI-H1915; first compound 1.265 µM
  relative viability: 0.429
NCI-H1915; first compound 4 µM
  relative viability: 0.339
NCI-H2170; first compound 0.04 µM
  relative viability: 0.768
NCI-H2170; first compound 0.1265 µM
  relative viability: 0.67
NCI-H2170; first compound 0.4 µM
  relative viability: 0.678
NCI-H2170; first compound 1.265 µM
  relative viability: 0.464
NCI-H2170; first compound 4 µM
  relative viability: 0.635
NCI-H2347; first compound 0.04 µM
  relative viability: 0.638
NCI-H2347; first compound 0.1265 µM
  relative viability: 0.563
NCI-H2347; first compound 0.4 µM
  relative viability: 0.743
NCI-H2347; first compound 1.265 µM
  relative viability: 0.392
NCI-H2347; first compound 4 µM
  relative viability: 0.398
NCI-H3122; first compound 0.04 µM
  relative viability: 0.221
NCI-H3122; first compound 0.1265 µM
  relative viability: 0.146
NCI-H3122; first compound 0.4 µM
  relative viability: 0.08
NCI-H3122; first compound 1.265 µM
  relative viability: 0.112
NCI-H3122; first compound 4 µM
  relative viability: 0.0832
NCI-H322M; first compound 0.04 µM
  relative viability: 0.456
NCI-H322M; first compound 0.1265 µM
  relative viability: 0.443
NCI-H322M; first compound 0.4 µM
  relative viability: 0.387
NCI-H322M; first compound 4 µM
  relative viability: 0.38
NCI-H441; first compound 0.04 µM
  relative viability: 0.696
NCI-H441; first compound 0.1265 µM
  relative viability: 0.632
NCI-H441; first compound 0.4 µM
  relative viability: 0.638
NCI-H441; first compound 1.265 µM
  relative viability: 0.422
NCI-H441; first compound 4 µM
  relative viability: 0.332
NCI-H460; first compound 0.04 µM
  relative viability: 0.722
NCI-H460; first compound 0.1265 µM
  relative viability: 0.423
NCI-H460; first compound 0.4 µM
  relative viability: 0.255
NCI-H460; first compound 1.265 µM
  relative viability: 0.0498
NCI-H460; first compound 4 µM
  relative viability: 0.064
NCI-H520; first compound 0.04 µM
  relative viability: 0.457
NCI-H520; first compound 0.1265 µM
  relative viability: 0.433
NCI-H520; first compound 0.4 µM
  relative viability: 0.435
NCI-H520; first compound 1.265 µM
  relative viability: 0.414
NCI-H520; first compound 4 µM
  relative viability: 0.452
NCI-H522; first compound 0.04 µM
  relative viability: 0.567
NCI-H522; first compound 0.1265 µM
  relative viability: 0.454
NCI-H522; first compound 0.4 µM
  relative viability: 0.584
NCI-H522; first compound 1.265 µM
  relative viability: 0.57
NCI-H522; first compound 4 µM
  relative viability: 0.454
NCI-H596; first compound 0.04 µM
  relative viability: 0.955
NCI-H596; first compound 0.1265 µM
  relative viability: 0.907
NCI-H596; first compound 0.4 µM
  relative viability: 0.877
NCI-H596; first compound 1.265 µM
  relative viability: 1.09
NCI-H596; first compound 4 µM
  relative viability: 1
NCI-H650; first compound 0.04 µM
  relative viability: 0.765
NCI-H650; first compound 0.1265 µM
  relative viability: 0.72
NCI-H650; first compound 0.4 µM
  relative viability: 0.594
NCI-H650; first compound 1.265 µM
  relative viability: 0.461
NCI-H650; first compound 4 µM
  relative viability: 0.523
NCI-H661; first compound 0.04 µM
  relative viability: 0.354
NCI-H661; first compound 0.1265 µM
  relative viability: 0.338
NCI-H661; first compound 0.4 µM
  relative viability: 0.333
NCI-H661; first compound 1.265 µM
  relative viability: 0.397
NCI-H661; first compound 4 µM
  relative viability: 0.377
NCI-H727; first compound 0.04 µM
  relative viability: 0.594
NCI-H727; first compound 0.1265 µM
  relative viability: 0.665
NCI-H727; first compound 0.4 µM
  relative viability: 0.582
NCI-H727; first compound 1.265 µM
  relative viability: 0.429
NCI-H727; first compound 4 µM
  relative viability: 0.429
PC-14; first compound 0.04 µM
  relative viability: 0.617
PC-14; first compound 0.1265 µM
  relative viability: 0.645
PC-14; first compound 0.4 µM
  relative viability: 0.602
PC-14; first compound 1.265 µM
  relative viability: 0.228
PC-14; first compound 4 µM
  relative viability: 0.257
RERF-LC-KJ; first compound 0.04 µM
  relative viability: 0.58
RERF-LC-KJ; first compound 0.1265 µM
  relative viability: 0.509
RERF-LC-KJ; first compound 0.4 µM
  relative viability: 0.436
RERF-LC-KJ; first compound 1.265 µM
  relative viability: 0.373
RERF-LC-KJ; first compound 4 µM
  relative viability: 0.174
SK-MES-1; first compound 0.04 µM
  relative viability: 0.843
SK-MES-1; first compound 0.1265 µM
  relative viability: 0.909
SK-MES-1; first compound 0.4 µM
  relative viability: 0.833
SK-MES-1; first compound 1.265 µM
  relative viability: 0.579
SK-MES-1; first compound 4 µM
  relative viability: 0.158
SW 900; first compound 0.04 µM
  relative viability: 0.533
SW 900; first compound 0.1265 µM
  relative viability: 0.656
SW 900; first compound 0.4 µM
  relative viability: 0.652
SW 900; first compound 1.265 µM
  relative viability: 0.417
SW 900; first compound 4 µM
  relative viability: 0.268
